Experiment: Example 2: liver biomarkers (albumin, gamma glutamyl transferase, total bilirubin, ALT, AST, ALP) in short bowel syndrome patients, every four weeks for 24 weeks; also sorted by >10% change from baseline
Format: in vivo, Human
Conditions: 0.05 mg/kg/d; for Alkaline Phosphatase: subjects Within 10% of Baseline / Alkaline Phosphatase: subjects with >10% decrease from Baseline / Alkaline Phosphatase: subjects with >10% increase from Baseline / Bilirubin: subjects Within 10% of Baseline / Bilirubin: subjects with >10% decrease from Baseline / Bilirubin: subjects with >10% increase from Baseline / ALT: subjects Within 10% of Baseline / ALT: subjects with >10% decrease from Baseline / ALT: subjects with >10% increase from Baseline / AST: subjects Within 10% of Baseline / AST: subjects with >10% decrease from Baseline / AST: subjects with >10% increase from Baseline / Albumin: subjects Within 10% of Baseline / Albumin: subjects with >10% decrease from Baseline / Albumin: subjects with >10% increase from Baseline: m = 38
Experimental: To further confirm the results of Example 1, a further study was conducted involving more individuals and additional diagnostic biomarkers. Human patients with short bowel syndrome were divided into two groups: a control group (43 total individuals) to receive placebo, and an experimental group (42 total individuals) to receive teduglutide at 0.05 mg/kg/day throughout the study. Patients were treated by subcutaneous injection of placebo or the appropriate dose of teduglutide. Known biomarkers of liver function were monitored every four weeks, for 24 weeks. The liver biomarkers tested included albumin, gamma glutamyl transferase, total bilirubin, ALT and AST and ALP. Before administration of placebo or teduglutide, diagnostic biomarker levels were tested to establish a baseline for each individual.
To determine the effect of GLP-2 on the levels of the diagnostic biomarkers, the average level of each biomarker was measured for the placebo and teduglutide treated groups for each visit. Furthermore, the average change from baseline was calculated using the established baseline values. For FIGS. 17-28, p-values were calculated using the t-test.
P values are provided, which were calculated for each distribution of biomarker changes for each week using the chi-squared test.

Compound: CC[C@H](C)[C@H](NC(=O)[C@H](Cc1ccccc1)NC(=O)[C@H](CC(=O)O)NC(=O)[C@H](CCCNC(=N)N)NC(=O)[C@H](C)NC(=O)[C@H](C)NC(=O)[C@H](CC(C)C)NC(=O)[C@H](CC(N)=O)NC(=O)[C@H](CC(=O)O)NC(=O)[C@H](CC(C)C)NC(=O)[C@@H](NC(=O)[C@@H](NC(=O)[C@H](CC(N)=O)NC(=O)[C@H](CCSC)NC(=O)[C@H](CCC(=O)O)NC(=O)[C@H](CC(=O)O)NC(=O)[C@H](CO)NC(=O)[C@H](Cc1ccccc1)NC(=O)[C@H](CO)NC(=O)CNC(=O)[C@H](CC(=O)O)NC(=O)CNC(=O)[C@@H](N)Cc1c[nH]cn1)[C@@H](C)O)[C@@H](C)CC)C(=O)N[C@@H](CC(N)=O)C(=O)N[C@@H](Cc1c[nH]c2ccccc12)C(=O)N[C@@H](CC(C)C)C(=O)N[C@H](C(=O)N[C@@H](CCC(N)=O)C(=O)N[C@H](C(=O)N[C@@H](CCCCN)C(=O)N[C@H](C(=O)N[C@H](C(=O)N[C@@H](CC(=O)O)C(=O)O)[C@@H](C)O)[C@@H](C)CC)[C@@H](C)O)[C@@H](C)CC [teduglutide]
- Alkaline Phosphatase: subjects Within 10% of Baseline (Week 16): 7 (18.4%) n (%)
- Alkaline Phosphatase: subjects with >10% decrease from Baseline (Week 16): 23 (60.5%) n (%)
- Alkaline Phosphatase: subjects with >10% increase from Baseline (Week 16): 8 (21.1%) n (%)
- Bilirubin: subjects Within 10% of Baseline (Week 16): 5 (13.2%) n (%)
- Bilirubin: subjects with >10% decrease from Baseline (Week 16): 24 (63.2%) n (%)
- Bilirubin: subjects with >10% increase from Baseline (Week 16): 9 (23.7%) n (%)
- ALT Change from Baseline, Max (Week 20): 24 U/L
- ALT Change from Baseline, Median (Week 20): −6.5 U/L
- ALT Change from Baseline, Min (Week 20): −55 U/L
- ALT Observed Value, Max (Week 20): 149 U/L
- ALT Observed Value, Min (Week 20): 5 U/L
- AST Change from Baseline, Max (Week 20): 10 U/L
- AST Change from Baseline, Mean (Week 20): −4.2 U/L
- AST Change from Baseline, Median (Week 20): −2.5 U/L
- AST Change from Baseline, Min (Week 20): −38 U/L
- AST Observed Value, Max (Week 20): 77 U/L
- AST Observed Value, Min (Week 20): 10 U/L
- Albumin Change from Baseline, Max (Week 20): 4 g/L
- Albumin Change from Baseline, Mean (Week 20): -0.6 g/L
- Albumin Change from Baseline, Median (Week 20): -1 g/L
- Albumin Change from Baseline, Min (Week 20): -8 g/L
- Albumin Observed Value, Max (Week 20): 49 g/L
- Albumin Observed Value, Median (Week 20): 43 g/L
- Albumin Observed Value, Min (Week 20): 33 g/L
- Alkaline Phosphatase Change from Baseline, Max (Week 20): 77 U/L
- Alkaline Phosphatase Change from Baseline, Min (Week 20): −117 U/L
- Alkaline Phosphatase Observed Value, Max (Week 20): 303 U/L
- Alkaline Phosphatase Observed Value, Min (Week 20): 54 U/L
- Bilirubin Change from Baseline, Max (Week 20): 2.8 µmol/L
- Bilirubin Change from Baseline, Median (Week 20): -1.7 µmol/L
- Bilirubin Change from Baseline, Min (Week 20): -25.5 µmol/L
- Bilirubin Observed Value, Max (Week 20): 31.9 µmol/L
- Bilirubin Observed Value, Min (Week 20): 3.7 µmol/L
- Gamma Glutamyl Transferase Change from Baseline, Max (Week 20): 57 U/L
- Gamma Glutamyl Transferase Change from Baseline, Mean (Week 20): −9.6 U/L
- Gamma Glutamyl Transferase Change from Baseline, Median (Week 20): −8 U/L
- Gamma Glutamyl Transferase Change from Baseline, Min (Week 20): −146 U/L
- Gamma Glutamyl Transferase Observed Value, Max (Week 20): 261 U/L
- Gamma Glutamyl Transferase Observed Value, Min (Week 20): 8 U/L
- ALT: subjects Within 10% of Baseline (Week 20): 10 (26.3%) n (%)
- ALT: subjects with >10% decrease from Baseline (Week 20): 23 (60.5%) n (%)
- ALT: subjects with >10% increase from Baseline (Week 20): 5 (13.2%) n (%)
- AST: subjects Within 10% of Baseline (Week 20): 11 (28.9%) n (%)
- AST: subjects with >10% decrease from Baseline (Week 20): 20 (52.6%) n (%)
- AST: subjects with >10% increase from Baseline (Week 20): 7 (18.4%) n (%)
- Albumin: subjects Within 10% of Baseline (Week 20): 37 (97.4%) n (%)
- Albumin: subjects with >10% decrease from Baseline (Week 20): 1 (2.6%) n (%)
- Albumin: subjects with >10% increase from Baseline (Week 20): 0 n (%)
- Alkaline Phosphatase: subjects Within 10% of Baseline (Week 20): 12 (31.6%) n (%)
- Alkaline Phosphatase: subjects with >10% decrease from Baseline (Week 20): 23 (60.5%) n (%)
- Alkaline Phosphatase: subjects with >10% increase from Baseline (Week 20): 3 (7.9%) n (%)
- Bilirubin: subjects Within 10% of Baseline (Week 20): 5 (13.2%) n (%)
- Bilirubin: subjects with >10% decrease from Baseline (Week 20): 25 (65.8%) n (%)
- Bilirubin: subjects with >10% increase from Baseline (Week 20): 8 (21.1%) n (%)
- ALT Change from Baseline, Max (Week 24): 21 U/L
- ALT Change from Baseline, Median (Week 24): −7.5 U/L
- ALT Change from Baseline, Min (Week 24): −60 U/L
- ALT Observed Value, Max (Week 24): 91 U/L
- ALT Observed Value, Min (Week 24): 7 U/L
- AST Change from Baseline, Max (Week 24): 14 U/L
- AST Change from Baseline, Mean (Week 24): −5.8 U/L
- AST Change from Baseline, Median (Week 24): −5 U/L
- AST Change from Baseline, Min (Week 24): −47 U/L
- AST Observed Value, Max (Week 24): 73 U/L
- AST Observed Value, Median (Week 24): 23 U/L
- AST Observed Value, Min (Week 24): 11 U/L
- Albumin Change from Baseline, Max (Week 24): 3 g/L
- Albumin Change from Baseline, Mean (Week 24): -0.4 g/L
- Albumin Change from Baseline, Median (Week 24): 0 g/L
- Albumin Change from Baseline, Min (Week 24): -8 g/L
- Albumin Observed Value, Max (Week 24): 48 g/L
- Albumin Observed Value, Median (Week 24): 42 g/L
- Albumin Observed Value, Min (Week 24): 33 g/L
- Alkaline Phosphatase Change from Baseline, Max (Week 24): 33 U/L
- Alkaline Phosphatase Change from Baseline, Min (Week 24): −122 U/L
- Alkaline Phosphatase Observed Value, Max (Week 24): 328 U/L
- Alkaline Phosphatase Observed Value, Median (Week 24): 88 U/L
- Alkaline Phosphatase Observed Value, Min (Week 24): 49 U/L
- Bilirubin Change from Baseline, Max (Week 24): 3.3 µmol/L
- Bilirubin Change from Baseline, Min (Week 24): -26.1 µmol/L
- Bilirubin Observed Value, Max (Week 24): 31.3 µmol/L
- Bilirubin Observed Value, Median (Week 24): 6.8 µmol/L
- Bilirubin Observed Value, Min (Week 24): 2.5 µmol/L
- Gamma Glutamyl Transferase Change from Baseline, Max (Week 24): 46 U/L
- Gamma Glutamyl Transferase Change from Baseline, Median (Week 24): −6 U/L
- Gamma Glutamyl Transferase Change from Baseline, Min (Week 24): −144 U/L
- Gamma Glutamyl Transferase Observed Value, Max (Week 24): 228 U/L
- Gamma Glutamyl Transferase Observed Value, Min (Week 24): 7 U/L
- ALT: subjects Within 10% of Baseline (Week 24): 10 (26.3%) n (%)
- ALT: subjects with >10% decrease from Baseline (Week 24): 24 (63.2%) n (%)
- ALT: subjects with >10% increase from Baseline (Week 24): 4 (10.5%) n (%)
- AST: subjects Within 10% of Baseline (Week 24): 8 (21.1%) n (%)
- AST: subjects with >10% decrease from Baseline (Week 24): 24 (63.2%) n (%)
- AST: subjects with >10% increase from Baseline (Week 24): 6 (15.8%) n (%)
- Albumin: subjects Within 10% of Baseline (Week 24): 36 (94.7%) n (%)
- Albumin: subjects with >10% decrease from Baseline (Week 24): 2 (5.3%) n (%)
- Albumin: subjects with >10% increase from Baseline (Week 24): 0 n (%)
- Alkaline Phosphatase: subjects Within 10% of Baseline (Week 24): 9 (23.7%) n (%)
- Alkaline Phosphatase: subjects with >10% decrease from Baseline (Week 24): 23 (60.5%) n (%)
- Alkaline Phosphatase: subjects with >10% increase from Baseline (Week 24): 6 (15.8%) n (%)
- Bilirubin: subjects Within 10% of Baseline (Week 24): 6 (15.8%) n (%)
- Bilirubin: subjects with >10% decrease from Baseline (Week 24): 26 (68.4%) n (%)
- Bilirubin: subjects with >10% increase from Baseline (Week 24): 6 (15.8%) n (%)
